From US12617744B2, “Production method for reduced coenzyme Q10 form-II type crystal or crystalline solid thereof” (KANEKA CORPORATION, priority 2021, dated 2026)

Experiments:
[1] = Median diameter measurement with particle size distribution analyzer; type: physicochemical; conditions: reduced coenzyme Q10 crystal obtained; Partica LA-960
Protocol: The median diameters of reduced coenzyme Q10 crystals obtained in Examples and Comparative Example were measured using the device described below. • Particle size distribution analyzer: Partica LA-960 <Percentage of Form II Crystal in Reduced Coenzyme Q10 Crystal>

[2] = Evaluation of slurry filterability by constant pressure filtration (average specific filtration resistance); type: physicochemical; conditions: slurry cooled to 1° C., filtrate volume 200 mL, filtration pressure 0.1 hPa
Protocol: The slurries obtained in Examples and Comparative Example were subjected to constant pressure filtration with a filtrate volume of 200 mL and a filtration pressure of 0.1 hPa and the filtration rate was measured. The average specific filtration resistance (αav) was calculated and used for the evaluation of filterability.

[3] = compared with oxidized coenzyme Q10; cited from earlier work
[4] = compared with conventional reduced coenzyme Q10 Form I crystal; cited from earlier work
[5] = Saturation concentration of crystal forms in alcohol; type: physicochemical; conditions: Form II crystal compared with Form I crystal
Description: The alcohol is preferably a monohydric alcohol having 1 to 5 carbon atoms. Examples of a monohydric alcohol having 1 to 5 carbon atoms include methanol, ethanol, n-propanol, isopropanol, n-butanol, isobutanol, and n-pentanol. As the alcohol, ethanol is particularly preferable because the saturation concentration of Form II crystal is sufficiently lower than the saturation concentration of Form I crystal and is easy to handle. As the alcohol, those exemplified above may be used alone, or two or more thereof may be mixed and used.

| SMILES | Median diameter [1] [μm] | average specific filtration resistance (αav) [2] | oral absorbability [3] | stability of crystal form [4] | saturation concentration in an alcohol [5] |
| --- | --- | --- | --- | --- | --- |
| COc1c(O)c(C)c(C/C=C(\C)CC/C=C(\C)CC/C=C(\C)CC/C=C(\C)CC/C=C(\C)CC/C=C(\C)CC/C=C(\C)CC/C=C(\C)CC/C=C(\C)CCC=C(C)C)c(O)c1OC [Example 2, reduced coenzyme Q10] | 87.6 | 0.98×10^10 m/kg | – | – | – |
| COc1c(O)c(C)c(C/C=C(\C)CC/C=C(\C)CC/C=C(\C)CC/C=C(\C)CC/C=C(\C)CC/C=C(\C)CC/C=C(\C)CC/C=C(\C)CC/C=C(\C)CCC=C(C)C)c(O)c1OC [Comparative Example 1, reduced coenzyme Q10] | 68.2 | 3.4×10^10 m/kg | – | – | – |
| COc1c(O)c(C)c(C/C=C(\C)CC/C=C(\C)CC/C=C(\C)CC/C=C(\C)CC/C=C(\C)CC/C=C(\C)CC/C=C(\C)CC/C=C(\C)CC/C=C(\C)CCC=C(C)C)c(O)c1OC [reduced coenzyme Q10] | – | – | higher oral absorbability than that of oxidized coenzyme Q10 | – | – |
| COc1c(O)c(C)c(C/C=C(\C)CC/C=C(\C)CC/C=C(\C)CC/C=C(\C)CC/C=C(\C)CC/C=C(\C)CC/C=C(\C)CC/C=C(\C)CC/C=C(\C)CCC=C(C)C)c(O)c1OC [Example 1, reduced coenzyme Q10] | 115.3 | 0.47×10^10 m/kg | – | – | – |
| COc1c(O)c(C)c(C/C=C(\C)CC/C=C(\C)CC/C=C(\C)CC/C=C(\C)CC/C=C(\C)CC/C=C(\C)CC/C=C(\C)CC/C=C(\C)CC/C=C(\C)CCC=C(C)C)c(O)c1OC [Example 3, reduced coenzyme Q10] | 107.3 | 0.48×10^10 m/kg | – | – | – |
| COc1c(O)c(C)c(C/C=C(\C)CC/C=C(\C)CC/C=C(\C)CC/C=C(\C)CC/C=C(\C)CC/C=C(\C)CC/C=C(\C)CC/C=C(\C)CC/C=C(\C)CCC=C(C)C)c(O)c1OC [reduced coenzyme Q10 Form II crystal, reduced coenzyme Q10] | – | – | – | much more stable than the conventional reduced coenzyme Q10 | lower than the saturation concentration of a Form I crystal |
